# Laboratory results from patent publication US5206382A, “Indole derivatives, pharmaceutical compositions and methods of treating neurological and psychiatric disorders” (Fidia Georgetown Institute for the Neurosciences, priority 1991, dated 1993).
# How the values were obtained:
# GABAA receptors = details: in words; cited from earlier work
# MBR [1] = details: in words; cited from earlier work
# rats = details: rats, small doses; partially resistant to Flumazenil, sensitive to PK-11195; cited from earlier work
# MBR [2] = details: in words; cited from earlier work; remark: listed apart in the source
# GABAA receptor = details: in words; cited from earlier work
# [3] = target: T1, MBR (mitochondrial benzodiazepine recognition site) (Rattus norvegicus, UniProt P16257); experiment: Displacement of ^3 H-RO5-4864 from mitochondrial BZD recognition site (MBR); type: binding, Sprague Dawley rat; details: displacement of 1 nM ^3 H-RO5-4864, rat mitochondria; range in parentheses
# T1 construct: Brain and adrenal glands were removed and homogenized with Polytron; from tissue; host or cells: mitochondrial fraction of Sprague Dawley rat brain and adrenal glands
# Experimental: (§1) Mitochondrial Preparation: Sprague Dawley rats (200-250 gr.) were killed by decapitation. Brain and adrenal glands were removed and homogenized with Polytron for 15 minutes in ice cold buffer (10 mM Na/KPO4, 0.32M sucrose, pH 7.4). The homogenate was centrifuged for 15 minutes at 6,500 xg at 4° C. The resulting supernatant was centrifuged for 15 minutes at […] at 4° C. The pellet was suspended in buffer (20 times) by gentle homogenization and centrifuged at 10,000 xg at 4° C. for 15 minutes. The washed mitochondrial pellet was stored at -70° C.
# (§2) For the binding assay the mitochondrial fraction was diluted with 50 mM Na/KPO4 buffer (pH 7.4) to give a final protein concentration of […] in 100 μl buffer. This suspension was incubated with 1 nM of ^3 H PK-11195 or ^3 H RO 5-4864 (50 μl) with or without 10/μM unlabeled PK-11195 or RO 5-4864 to assess the extent of total and non-specific binding. Different amounts of indole derivatives were added to the incubation medium in a volume of 50 μl. After incubation for 60 minutes at 4° C., samples were filtered and the radioactivity was measured in a scintillation counter.
# [4] = target: ^3 H-GABA binding (crude synaptic membrane); experiment: ^3 H-GABA binding, crude synaptic membranes; design: species or system Sprague Dawley rat; details: 10 nM ^3 H-GABA, rat cerebellum membranes
# Experimental: (§3) Crude Synaptic Membrane Preparation: Sprague Dawley rats (200-250 gr.) were killed by decapitation. The cerebella were removed and incubated for 20 minutes in ice cold double distilled water after homogenization with Polytron. The homogenate was centrifuged at 18,000 xg at 4° C. for 10 minutes. The pellet was suspended in ice-cold buffer 50 mM Na/KPO4(pH 7.4) and centrifuged at 18,000 xg at 4° C. for 10 minutes. After two other centrifugations, the membranes were suspended in 5 ml of buffer and the proteins were measured.
# (§4) The membranes were diluted with 50 mM Na/KPO4 buffer (pH 7.4) to a concentration of 150 μg of protein/ml, and 150 μl aliquots of the suspension were incubated with 50 μl of the different ligands to be tested: ^3 H-ZOLPIDEM(2 nM), ^3 H-FLUMAZENIL (2 nM), ^3 H-GABA(10 nM), ^3 H-MK 801(5 nM), ^3 H-KETANSERIN(1 nM), ^3 H-GLYCINE(20 nM), ^3 H-SPIPERONE(1 nM), ^3 H-AMPA(10 nM), ^3 H-3-PPP(1 nM), and ^3 H-NALOXONE(1 nM). Non-specific binding was assessed by displacing with 10 to 1000/μM of cold ligand. The different indole derivatives were added in a volume of 50 μl in a concentration varying from 10^-9 to 10^-3 M. The results are reported in Table I hereinbelow.
# [5] = target: T2, BZD binding site located on the GABAA receptor (Rattus norvegicus, UniProt P18508+P62813); experiment: ^3 H-FLUMAZENIL binding, crude synaptic membranes; design: species or system Sprague Dawley rat; details: 2 nM ^3 H-FLUMAZENIL, rat cerebellum membranes
# T2 construct: The cerebella were removed and incubated for 20 minutes in ice cold double distilled water; from tissue; host or cells: crude synaptic membranes of Sprague Dawley rat cerebellum
# T2 sequence (P62813 28-455): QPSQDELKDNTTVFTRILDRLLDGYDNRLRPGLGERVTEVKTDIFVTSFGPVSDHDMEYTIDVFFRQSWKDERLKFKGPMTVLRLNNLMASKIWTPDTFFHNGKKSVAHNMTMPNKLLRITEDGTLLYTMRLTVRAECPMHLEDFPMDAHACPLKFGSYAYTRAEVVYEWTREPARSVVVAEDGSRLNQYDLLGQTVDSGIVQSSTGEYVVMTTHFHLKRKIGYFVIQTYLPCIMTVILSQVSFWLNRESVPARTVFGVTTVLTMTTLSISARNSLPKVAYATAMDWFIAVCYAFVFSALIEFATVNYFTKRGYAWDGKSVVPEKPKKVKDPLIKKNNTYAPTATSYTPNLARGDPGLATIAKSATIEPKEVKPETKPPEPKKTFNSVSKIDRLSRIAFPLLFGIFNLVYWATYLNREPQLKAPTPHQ
# T2 sequence (P18508 39-466): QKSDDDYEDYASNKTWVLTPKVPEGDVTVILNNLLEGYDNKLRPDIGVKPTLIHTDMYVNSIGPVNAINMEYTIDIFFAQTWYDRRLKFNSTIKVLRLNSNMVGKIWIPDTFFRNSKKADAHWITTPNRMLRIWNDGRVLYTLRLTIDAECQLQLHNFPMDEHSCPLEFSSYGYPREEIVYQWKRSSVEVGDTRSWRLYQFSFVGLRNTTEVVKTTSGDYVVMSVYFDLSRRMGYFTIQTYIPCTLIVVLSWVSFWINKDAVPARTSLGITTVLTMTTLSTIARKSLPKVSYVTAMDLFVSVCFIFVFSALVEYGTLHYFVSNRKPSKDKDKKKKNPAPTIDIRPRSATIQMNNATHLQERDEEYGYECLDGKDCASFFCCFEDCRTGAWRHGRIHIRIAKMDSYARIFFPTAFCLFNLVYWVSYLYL
# Experimental: as §3
# The membranes were diluted with 50 mM Na/KPO4 buffer (pH 7.4) to a concentration of 150 μg of protein/ml, and 150 μl aliquots of the suspension were incubated with 50 μl of the different ligands to be tested: ^3 H-ZOLPIDEM(2 nM), ^3 H-FLUMAZENIL (2 nM), ^3 H-GABA(10 nM), ^3 H-MK 801(5 nM), ^3 H-KETANSERIN(1 nM), ^3 H-GLYCINE(20 nM), ^3 H-SPIPERONE(1 nM), ^3 H-AMPA(10 nM), ^3 H-3-PPP(1 nM), and ^3 H-NALOXONE(1 nM). Non-specific binding was assessed by displacing with 10 to 1000/μM of cold ligand.
# Sprague Dawley rats = experiment: Elevated X maze test; type: in vivo, Sprague Dawley rat; details: for Entries in open arms, test after 10 min injection / Entries in open arms, test after 20 min injection / Entries in open arms, test after 30 min injection: rats; for behavioral output of rats in the elevated X maze test / anxiolytic potency ranking: in words
# Experimental: The elevated X maze is a behavioral test to detect anxiolytic drugs in rodents. […] The plus-maze consists of two open arms (43×8 cm) and two similarly sized enclosed arms with 9 cm high walls, arranged so that the arms of the same type are opposite each other. There is a central square of 8 cm. The apparatus is elevated to a height of 10 cm and each arm is divided into 3 squares.
# Sprague Dawley rats weighing 200-250 gr. were housed in a room with a 12 hour light: 12 hour dark cycle and were allowed free access to food and water. After an i.v. injection of different indole derivatives, the rats were kept separated for 10, 20 or 30 minutes before testing. The testing period commenced when each animal was placed onto the central square of the maze. The number of entries in each arm was then recorded for 5 minutes. The maze was cleaned with water after each trial. The number of entries in the open arms provided a measure of anxiolytic activity of the drugs.
# [6] = tested on: mitochondrial pregnenolone formation, C6-2B glioma cells; experiment: Pregnenolone formation in glial mitochondria (C6-2B glioma cells); type: biochemical; details: for Effective concentration, maximal / EC50: C6 glial cell mitochondria, 15 minutes at 37° C.; for EC50: read-out: Effective concentration, 50%; for Stimulation %: pregnenolone formation, increase over the control
# Experimental: The mixture was preincubated for 5 minutes at 37° C. The incubation mixture was extracted with 5 ml chloroform/methanol (2:1, vol/vol), and the organic phase was evaporated to dryness. Pregnenolone was measured by a specific radioimmunoassay using an antibody obtained from Radioassay Systems Laboratories, Carson, Calif.
# [7] = target: T1, MBR (mitochondrial benzodiazepine recognition site); experiment: Displacement of ^3 H-PK11195 from mitochondrial BZD recognition site (MBR); type: binding, Sprague Dawley rat; details: for IC50: displacement of 1 nM ^3 H-PK11195, rat mitochondria, range in parentheses; for ^3 H-PK11195 / ^3 H-RO5-4864: ratio of the two IC50 values
# Experimental: as §1, §2
# [8] = target: T3, ^3 H-ZOLPIDEM binding (crude synaptic membrane) (Rattus norvegicus, UniProt P18508+P62813); experiment: ^3 H-ZOLPIDEM binding, crude synaptic membranes; design: species or system Sprague Dawley rat; details: 2 nM ^3 H-ZOLPIDEM, rat cerebellum membranes
# T3 construct: from tissue; host or cells: crude synaptic membranes of Sprague Dawley rat cerebellum
# T3 sequence (P62813 28-455): as the sequence (P62813 28-455) above
# T3 sequence (P18508 39-466): as the sequence (P18508 39-466) above
# Experimental: as §3, §4
# [9] = Sedation and ataxia in rats; details: rat, in vivo, ratio of doses, read-out: anxiolytic doses lower than the doses that produce sedation and ataxia
smiles,measurement,setting,value
"CC(=O)[C@H]1CC[C@H]2[C@@H]3CC[C@H]4C[C@H](O)CC[C@]4(C)[C@H]3CC[C@]12C [3-α-hydroxy-5α-pregnan-20-one(3-αOH-DHP), 3-α-hydroxy-5α-pregnan-20-one]",modulation of GABA action,GABAA receptors,positively modulate
"C[C@]12CC[C@@H](O)C[C@@H]1CC[C@@H]1[C@@H]2CC[C@]2(C)[C@@H](C(=O)CO)CC[C@@H]12 [3α,21-dihydroxy-5α-pregnan-20-one(THDOC), 3α,21-dihydroxy-5α-pregnan-20-one]",modulation of GABA action,GABAA receptors,positively modulate
CN1C(=O)CN=C(c2ccc(Cl)cc2)c2cc(Cl)ccc21 [4-Cl-Diazepam],cholesterol influx into mitochondria and formation of pregnenolone,MBR [1],facilitates cholesterol influx into mitochondria and the formation of pregnenolone
same,conflict response,rats,proconflict response
same,affinity for the MBR,MBR [2],high affinity
same,binding to the GABAA receptor / BZD recognition sites on GABAA receptors,GABAA receptor,binds to the GABAA receptor
CCCN(CCC)C(=O)Cc1c(-c2ccccc2)[nH]c2ccccc12 [Compound No. 2],IC50,[3],22.5 nM
same,IC50,[4],> 1000 nM
same,IC50,[5],> 1000 nM
same,"Entries in open arms, test after 10 min injection",Sprague Dawley rats; 20 mg/kg i.v.,0
same,"Entries in open arms, test after 20 min injection",Sprague Dawley rats; 20 mg/kg i.v.,0
same,"Entries in open arms, test after 30 min injection",Sprague Dawley rats; 20 mg/kg i.v.,0
same,"Entries in open arms, test after 10 min injection",Sprague Dawley rats; 200 mg/kg i.v.,4
same,"Entries in open arms, test after 20 min injection",Sprague Dawley rats; 200 mg/kg i.v.,0
same,"Entries in open arms, test after 30 min injection",Sprague Dawley rats; 200 mg/kg i.v.,0
same,behavioral output of rats in the elevated X maze test,Sprague Dawley rats,increase the behavioral output
same,"Effective concentration, maximal",[6],10^-9 M
same,EC50,[6],0.33 nM
same,Stimulation %,[6],200%
same,IC50,[7],32.5 nM
same,^3 H-PK11195 / ^3 H-RO5-4864,[7],1.4
same,IC50,[8],> 1000 nM
CCCCCCNC(=O)Cc1c(-c2ccccc2)[nH]c2ccccc12 [Compound No. 13],IC50,[3],32.5 nM
same,IC50,[4],> 1000 nM
same,IC50,[5],> 1000 nM
same,"Entries in open arms, test after 10 min injection",Sprague Dawley rats; 20 mg/kg i.v.,2
same,"Entries in open arms, test after 20 min injection",Sprague Dawley rats; 20 mg/kg i.v.,2
same,"Entries in open arms, test after 30 min injection",Sprague Dawley rats; 20 mg/kg i.v.,3
same,behavioral output of rats in the elevated X maze test,Sprague Dawley rats,increase the behavioral output
same,IC50,[7],57.5 nM
same,^3 H-PK11195 / ^3 H-RO5-4864,[7],1.8
same,IC50,[8],> 1000 nM
CCCN(CCC)C(=O)Cc1c(-c2ccc(Cl)cc2)[nH]c2ccccc12 [compound 5],IC50,[3],25.5 nM
same,IC50,[4],> 1000 nM
same,IC50,[5],> 1000 nM
same,IC50,[7],28.5 nM
same,^3 H-PK11195 / ^3 H-RO5-4864,[7],1.1
same,IC50,[8],> 1000 nM
CCCN(CCC)C(=O)Cc1c(-c2ccc(F)cc2)[nH]c2ccccc12 [compound 20],IC50,[3],50 nM
same,IC50,[4],> 1000 nM
same,IC50,[5],> 1000 nM
same,"Entries in open arms, test after 10 min injection",Sprague Dawley rats; 20 mg/kg i.v.,3
same,"Entries in open arms, test after 20 min injection",Sprague Dawley rats; 20 mg/kg i.v.,2
same,"Entries in open arms, test after 30 min injection",Sprague Dawley rats; 20 mg/kg i.v.,6
same,behavioral output of rats in the elevated X maze test,Sprague Dawley rats,increase the behavioral output
same,"Effective concentration, maximal",[6],10^-9 M
same,EC50,[6],0.33 nM
same,Stimulation %,[6],183%
same,IC50,[7],100 nM
same,^3 H-PK11195 / ^3 H-RO5-4864,[7],2
CCCCCCN(CCCCCC)C(=O)Cc1c(-c2ccc(F)cc2)[nH]c2ccccc12 [compound 27],selectivity ratio,[9],100 to 500
same,IC50,[3],20 nM
same,IC50,[4],> 1000 nM
same,IC50,[5],> 1000 nM
same,"Entries in open arms, test after 10 min injection",Sprague Dawley rats; 0.5 mg/kg i.v.,5
same,"Entries in open arms, test after 20 min injection",Sprague Dawley rats; 0.5 mg/kg i.v.,2
same,"Entries in open arms, test after 30 min injection",Sprague Dawley rats; 0.5 mg/kg i.v.,1
same,anxiolytic potency ranking,Sprague Dawley rats,most potent anxiolytic drugs
same,behavioral output of rats in the elevated X maze test,Sprague Dawley rats,increase the behavioral output
same,"Effective concentration, maximal",[6],10^-7 M
same,EC50,[6],3.3 nM
same,Stimulation %,[6],300%
same,IC50,[7],18 nM
same,^3 H-PK11195 / ^3 H-RO5-4864,[7],0.9
CCCCCCN(CCCCCC)C(=O)Cc1c(-c2ccc(Cl)cc2)[nH]c2ccc(Cl)cc12 [compound 43],selectivity ratio,[9],100 to 500
same,"Entries in open arms, test after 10 min injection",Sprague Dawley rats; 0.5 mg/kg i.v.,4
same,"Entries in open arms, test after 20 min injection",Sprague Dawley rats; 0.5 mg/kg i.v.,2
same,"Entries in open arms, test after 30 min injection",Sprague Dawley rats; 0.5 mg/kg i.v.,1
same,anxiolytic potency ranking,Sprague Dawley rats,most potent anxiolytic drugs
same,behavioral output of rats in the elevated X maze test,Sprague Dawley rats,increase the behavioral output
CC(=O)[C@H]1CC[C@H]2[C@@H]3CC=C4C[C@@H](OS(=O)(=O)O)CC[C@]4(C)[C@H]3CC[C@]12C [pregnenolone sulphate],modulation of GABA action,GABAA receptors,negatively modulate
